Measurements taken from ChEMBL document CHEMBL5375966, “Exploiting the "Hot-Spots" of Hsp70-Bim Protein-Protein Interaction to Optimize the 1-Oxo-1H-phenalene-2,3-dicarbonitrile Analogues as Specific Hsp70-Bim Inhibitors” (J Med Chem, 2023).
One block for each compound: values may come before it. Active and inactive are the calls of the source. The calls are words filed in the database; no cut-off is given here.

What was measured:
[1] = Inhibition of Bim (unknown origin)- N-terminal 6His-tagged human recombinant HSP70 NBD (1 to 383 residues) expressed in Escherichia coli BL21 (DE3) protein protein interaction assessed as suppression of BimBH3-stimulated HSP70 ATPase activity
[2] = Inhibition of Fam-labeled BimBH3 peptide binding to N-terminal 6His-tagged human recombinant HSP70 NBD (1 to 383 residues) expressed in Escherichia coli BL21 (DE3) assessed as inhibition constant incubated for 24 hrs by fluorescence polarization assay
[3] = Induction of apoptosis in mouse BaF3 cells incubated for 24 hrs by annexin V/PI staining based flow cytometry analysis; assay type: toxicity, cell-based
Homo sapiens = species: Homo sapiens; assay: Inhibition of N-terminal 6His-tagged human recombinant HSP70 NBD (1 to 383 residues) expressed in Escherichia coli BL21 (DE3) ATPase activity
[4] = Induction of apoptosis in human HEK293 cells incubated for 24 hrs by annexin V/PI staining based flow cytometry analysis; assay type: toxicity, cell-based
[5] = Induction of apoptosis in human Imatinib-resistant K562-R3 cells incubated for 24 hrs by annexin V/PI staining based flow cytometry analysis; assay type: functional; settings: Imatinib-resistant K562-R3 cell
K562 [6] = assay: Induction of apoptosis in human K562 cells incubated for 24 hrs by annexin V/PI staining based flow cytometry analysis; assay type: functional, cell-based; settings: K562, 24 h
BV-173 = assay: Induction of apoptosis in human BV-173 cells incubated for 24 hrs by annexin V/PI staining based flow cytometry analysis; assay type: functional, cell-based; settings: BV-173, 24 h
HEK293 = assay: Induction of apoptosis in human HEK293 cells assessed as apoptotic rate at 15 uM incubated for 24 hrs by annexin V/PI staining based flow cytometry analysis relative to control; assay type: toxicity, cell-based; settings: hek293, 24 h
BaF3 = assay: Induction of apoptosis in mouse BaF3 cells assessed as apoptotic rate at 15 uM incubated for 24 hrs by annexin V/PI staining based flow cytometry analysis relative to control; assay type: toxicity, cell-based; settings: baf3, 24 h
[7] = Cmax in Sprague-Dawley rat at 3 mg/kg, iv measured upto 24 hrs by LC-MS/MS analysis; assay type: ADME, organism-based; set-up: dose 3 mg/kg, time < 24 hrs, route iv; settings: in vivo
[8] = Half life in Sprague-Dawley rat at 3 mg/kg, iv measured upto 24 hrs by LC-MS/MS analysis; assay type: ADME, organism-based; settings: in vivo
K562 [9] = assay: Inhibition of HSP70-Bim protein protein interaction in human K562 cells incubated for 12 hrs by Co-IP analysis; assay type: cell-based; settings: dose 0-5 µM
Mus musculus [10] = assay: (§1) In vivo disruption of HSP70-Bim protein protein interaction in BALB/c nu/nu mouse xenografted with Bcr-Abl independent human Imatinib-resistant K562-R1 cells assessed as destabilization of EIF4e protein level at 2 mg/kg, ip administered every day for 14 days and measured on day 15 by immunoblot analysis; assay type: functional, organism-based; settings: time 15.0 day
[11] = Inhibition of Fam-labeled BimBH3 peptide binding to N-terminal 6His-tagged human recombinant HSP70 NBD (1 to 383 residues) Y149A mutant expressed in Escherichia coli BL21 (DE3) assessed as dissociation constant incubated for 24 hrs by fluorescence polarization assay
[12] = Inhibition of Fam-labeled BimBH3 peptide binding to N-terminal 6His-tagged human recombinant HSP70 NBD (1 to 383 residues) Y149A mutant expressed in Escherichia coli BL21 (DE3) assessed as inhibition constant incubated for 24 hrs by fluorescence polarization assay
K562 [13] = assay: Inhibition of HSP70-Bim protein protein interaction in human K562 cells assessed as decrease in EIF4e protein expression at 2 uM incubated for 12 hrs by Western blot analysis; assay type: cell-based
[14] = Toxicity in BALB/c nu/nu mouse xenografted with Bcr-Abl independent human Imatinib-resistant K562-R1 cells assessed as reduction in body weight at 2 mg/kg, ip administered every day for 14 days and measured every 3 days; assay type: organism-based; settings: in vivo, 336 h, time 14 day
[15] = AUCt in Sprague-Dawley rat at 3 mg/kg, iv measured upto 24 hrs by LC-MS/MS analysis; assay type: ADME, organism-based; set-up: time < 24 hrs, dose 3 mg/kg, route iv; settings: in vivo
K562 [16] = assay: Induction of apoptosis in HSP70 shRNA transfected human K562 cells assessed as increase in Annexin V+ cells at 2 uM incubated for 24 hrs by Annexin V/PI staining based flow cytometry analysis; assay type: functional, cell-based
K562 [17] = assay: Induction of apoptosis in Bim shRNA transfected human K562 cells assessed as increase in cleaved PARP level at 2 uM incubated for 24 hrs by Western blot analysis; assay type: functional, cell-based
Mus musculus [18] = assay: In vivo disruption of HSP70-Bim protein protein interaction in BALB/c nu/nu mouse xenografted with Bcr-Abl independent human Imatinib-resistant K562-R1 cells at 2 mg/kg, ip administered every day for 14 days and measured on day 15 by Co-IP analysis; assay type: functional, organism-based; settings: time 15.0 day
[19] = tested on: Imatinib-resistant K562-R1; assay: Antitumor activity against Bcr-Abl independent human Imatinib-resistant K562-R1 cells xenografted in BALB/c nu/nu mouse assessed as reduction in tumor growth at 2 mg/kg, ip administered every day for 14 days and measured on day 15; assay type: functional, organism-based; settings: time 15.0 day
K562 [20] = assay: Inhibition of HSP70-Bag3 protein protein interaction in human K562 cells at 10 uM incubated for 12 hrs by Co-IP analysis; assay type: cell-based
[21] = Inhibition of Fam-labeled BimBH3 peptide binding to N-terminal 6His-tagged human recombinant HSP70 NBD (1 to 383 residues) D225T mutant expressed in Escherichia coli BL21 (DE3) assessed as dissociation constant incubated for 24 hrs by fluorescence polarization assay
K562 [22] = assay: Induction of apoptosis in Bim shRNA transfected human K562 cells assessed as increase in Annexin V+ cells at 2 uM incubated for 24 hrs by Annexin V/PI staining based flow cytometry analysis; assay type: functional, cell-based
K562 [23] = assay: Induction of apoptosis in HSP70 shRNA transfected human K562 cells assessed as increase in cleaved PARP level at 2 uM incubated for 24 hrs by Western blot analysis; assay type: functional, cell-based
[24] = Inhibition of Fam-labeled BimBH3 peptide binding to N-terminal 6His-tagged human recombinant HSP70 NBD (1 to 383 residues) D225T mutant expressed in Escherichia coli BL21 (DE3) assessed as inhibition constant incubated for 24 hrs by fluorescence polarization assay
K562 [25] = assay: Inhibition of HSP70-Bim protein protein interaction in human K562 cells assessed as decrease in AKT phosphorylation at 2 uM incubated for 12 hrs by Western blot analysis; assay type: cell-based
[26] = Antitumor activity against Bcr-Abl independent human Imatinib-resistant K562-R1 cells xenografted in BALB/c nu/nu mouse assessed as reduction in tumor weight by measuring T/C ratio at 2 mg/kg, ip administered every day for 14 days and measured on day 15; assay type: functional; settings: time 14 day
[27] = Clearance in Sprague-Dawley rat at 3 mg/kg, iv measured upto 24 hrs by LC-MS/MS analysis; assay type: ADME, organism-based; settings: in vivo
[28] = Tmax in Sprague-Dawley rat at 3 mg/kg, iv measured upto 24 hrs by LC-MS/MS analysis; assay type: ADME, organism-based; settings: in vivo
K562 [29] = assay: Inhibition of HSP70-Bim protein protein interaction in human K562 cells assessed as decrease in EIF4e phosphorylation at 2 uM incubated for 12 hrs by Western blot analysis; assay type: cell-based
K562 [30] = assay: Inhibition of HSP70-Bim protein protein interaction in human K562 cells assessed as decrease in AKT protein expression at 2 uM incubated for 12 hrs by Western blot analysis; assay type: cell-based
Mus musculus [31] = assay: as §1, with “AKT” for “EIF4e”; assay type: functional, organism-based; settings: time 15.0 day
[32] = Inhibition of Fam-labeled BimBH3 peptide binding to wild type N-terminal 6His-tagged human recombinant HSP70 NBD (1 to 383 residues) expressed in Escherichia coli BL21 (DE3) assessed as dissociation constant incubated for 24 hrs by fluorescence polarization assay

SMILES: CCCCNC(=O)CCNC1=C(C#N)C(=O)c2cccc3c(SC4CCCCC4)ccc1c23
inhibition [1]: Active | Ki [2]: 0.88 µM

SMILES: N#Cc1ccc(COC[C@H]2O[C@@H](n3c(NCc4ccc(Cl)c(Cl)c4)nc4c(N)ncnc43)[C@H](O)[C@@H]2O)cc1
EC50 at 24 h [3]: 5.5 µM | inhibition (Homo sapiens): Active | EC50 at 24 h [4]: 7.7 µM | EC50 [5]: 8.5 µM | EC50 (K562 [6]): 7.8 µM | EC50 (BV-173): 5.8 µM | Ki [2]: > 20 µM

SMILES: CCN(CC)CCNC1=C(C#N)C(=O)c2cccc3c(SC4CCCC4)ccc1c23
inhibition [1]: Active | Ki [2]: 0.32 µM

SMILES: N#CC1=C(NCCC(=O)O)c2ccc(SC3CCCCC3)c3cccc(c23)C1=O
inhibition [1]: Active | Ki [2]: > 20 µM

SMILES: CCOC(=O)CN1CCN(CCNC2=C(C#N)C(=O)c3cccc4c(SC5CCCCC5)ccc2c34)CC1
inhibition [1]: Active | Ki [2]: 4.1 µM

SMILES: COC(=O)CCNC1=C(C#N)C(=O)c2cccc3c(SC4CCCCC4)ccc1c23
Activity (HEK293): < 10% | inhibition [1]: Active | Activity (BaF3): < 10% | EC50 [5]: 1.7 µM | EC50 (K562 [6]): 9.4 µM | EC50 (BV-173): 6.1 µM | Ki [2]: 2.6 µM

SMILES: CCN(CC)CCNC1=C(C#N)C(=O)c2cccc3c(SC4CCCCC4)ccc1c23
Cmax [7]: 2300 ng/mL | half-life [8]: 5.2 h | inhibition (K562 [9]): Dose-Dependent Effect | Activity (Mus musculus [10]): Active | Activity (HEK293): < 10% | Kd [11]: 1.58 µM | Ki [12]: 2.72 µM | inhibition (K562 [13]): Active | Activity [14]: Non-Toxic | IC50 [1]: 15.8 µM | inhibition [1]: Dose-Dependent Effect | AUC(0-t) at 24 h [15]: 12200 ng·h/mL | Activity (K562 [16]): inactive | Activity (K562 [17]): inactive | Activity (Mus musculus [18]): Active | Activity [19]: Active | inhibition (K562 [20]): inactive | Kd [21]: 3.12 µM | Activity (BaF3): < 10% | Activity (K562 [22]): inactive | EC50 [5]: 0.34 µM | Activity (K562 [23]): inactive | Ki [24]: 5.15 µM | inhibition (K562 [25]): Active | EC50 (K562 [6]): 1.3 µM | T/C [26]: 33.51% | clearance [27]: 4.1 mL/min/kg | Tmax [28]: 1 h | inhibition (K562 [29]): Active | inhibition (K562 [30]): Active | EC50 (BV-173): 0.62 µM | Activity (Mus musculus [31]): Active | Kd [32]: 0.21 µM | Ki [2]: 0.25 µM

SMILES: N#CC1=C(NCCN2CCN(Cc3ccccc3)CC2)c2ccc(SC3CCCCC3)c3cccc(c23)C1=O
inhibition [1]: Active | Ki [2]: > 20 µM

SMILES: N#CC1=C(NCCN2CCOCC2)c2ccc(SC3CCCCC3)c3cccc(c23)C1=O
inhibition [1]: Active | Ki [2]: 1.8 µM

SMILES: COC(=O)CCNC1=C(C#N)C(=O)c2cccc3c(SC4CCCC4)ccc1c23
inhibition [1]: Active | Ki [2]: 2.2 µM

SMILES: CN(C)CCNC1=C(C#N)C(=O)c2cccc3c(SC4CCCCC4)ccc1c23
Activity (HEK293): > 10% | inhibition [1]: Active | Activity (BaF3): < 10% | EC50 [5]: 0.45 µM | EC50 (K562 [6]): 2.4 µM | EC50 (BV-173): 1.1 µM | Ki [2]: 0.57 µM

SMILES: N#CC1=C(NCCC(=O)NCc2ccccc2)c2ccc(SC3CCCCC3)c3cccc(c23)C1=O
inhibition [1]: Active | Ki [2]: 14.4 µM

SMILES: CCn1c(=O)/c(=C2\Sc3ccccc3N2C)s/c1=C\c1cccc[n+]1CC
inhibition (K562 [20]): Active

SMILES: CCCCSc1ccc2c3c(cccc13)C(=O)C(C#N)=C2NCCC(=O)OC
inhibition [1]: Active | Ki [2]: 14.5 µM

SMILES: CCNCCNC1=C(C#N)C(=O)c2cccc3c(SC4CCCCC4)ccc1c23
inhibition [1]: Active | Ki [2]: 0.72 µM

SMILES: N#CC1=C(NCCC(=O)NC2CCCCC2)c2ccc(SC3CCCCC3)c3cccc(c23)C1=O
inhibition [1]: Active | Ki [2]: 11 µM

The next lines start with results.

inhibition [1]: Active
SMILES: COC(=O)CCNC1=C(C#N)C(=O)c2cccc3c(Sc4ccccc4)ccc1c23
Ki [2]: 4.5 µM

inhibition [1]: Active
SMILES: COC(=O)CCNC1=C(C#N)C(=O)c2cccc3c(Sc4cccc(N)c4)ccc1c23
Ki [2]: 18.9 µM

inhibition [1]: Active
SMILES: COC(=O)CCNC1=C(C#N)C(=O)c2cccc3c(SCCc4ccccc4)ccc1c23
Ki [2]: > 20 µM

inhibition [1]: Active
SMILES: COC(=O)CCNC1=C(C#N)C(=O)c2cccc3c(Sc4ccc(Br)cc4)ccc1c23
Ki [2]: 2.5 µM

inhibition [1]: Active
SMILES: COC(=O)CCNC1=C(C#N)C(=O)c2cccc3c(Sc4ccc(C(C)C)cc4)ccc1c23
Ki [2]: 16.2 µM

inhibition [1]: Active
SMILES: COC(=O)CCNC1=C(C#N)C(=O)c2cccc3c(SCCO)ccc1c23
Ki [2]: > 20 µM

inhibition [1]: Active
SMILES: COC(=O)CCNC1=C(C#N)C(=O)c2cccc3c(Sc4ccc(C)cc4)ccc1c23
Ki [2]: 3.4 µM

inhibition [1]: Active
SMILES: COC(=O)CCNC1=C(C#N)C(=O)c2cccc3c(Sc4ccc(C(C)(C)C)cc4)ccc1c23
Ki [2]: > 20 µM

inhibition [1]: Active
SMILES: COC(=O)CCNC1=C(C#N)C(=O)c2cccc3c(Sc4ccc(N)cc4)ccc1c23
Ki [2]: > 20 µM
